According to patent US9895322B2, “Pharmaceutical compositions for the delivery of substantially water-insoluble drugs” (priority 2012, dated 2018):
Values after ≈ are worked out from the molar mass of the structure shown.

Key:
[1] = cited from earlier work; for water solubility: background statement
[2] = test system: Taxol resistant cell line; assay: cytopathic effects on Taxol resistant cell line (FIG. 10, 11); type: cell-based; conditions: 5 microgram/ml Taxol, FIG. 11
Text: FIG. 10A. A taxol resistant cell line without treatment (in vitro) showing aggressive growth. FIG. 10B. The same cell line treated with the hybrid taxol, showing cytopathic effects.

| SMILES | solubility in DMSO ([1]; DMSO) | water solubility [1] | solubility in water ([1]; estimated) | solubility in ethanol ([1]; ethanol, with warming) | cytopathic effects at very low concentration [2] |
| --- | --- | --- | --- | --- | --- |
| C=C(c1ccc(C(=O)O)cc1)c1cc2c(cc1C)C(C)(C)CCC2(C)C [Bexarotene] | 65 mg/mL (≈ 187 mM) | poorly soluble in water | 10 to 50 µM | 10 mg/mL (≈ 28.7 mM) | – |
| CC1=C(/C=C/C(C)=C/C=C/C(C)=C/C(=O)O)C(C)(C)CCC1 [All-trans-retinoic acid] | – | not water-soluble | – | – | – |
| CC(=O)O[C@H]1C(=O)[C@@]2(C)[C@H]([C@H](OC(=O)c3ccccc3)[C@]3(O)C[C@H](OC(=O)[C@H](O)[C@@H](NC(=O)c4ccccc4)c4ccccc4)C(C)=C1C3(C)C)[C@]1(OC(C)=O)CO[C@@H]1C[C@@H]2O [Taxol, paclitaxel] | – | very poorly water-soluble | – | – | cytopathic effects are observed |
